Tested on: MV-4-11 cells
Assay: Gene expression microarray analysis (Affymetrix PrimeView) and GSEA
Format: cell-based, human
Set-up: RFU PODN (11730768_x_at) / Fold change /veh PODN (11730768_x_at) / RFU LINC00158 (11744669_a_at) / Fold change /veh LINC00158 (11744669_a_at) / RFU DUSP10 (11751237_a_at) / Fold change /veh DUSP10 (11751237_a_at) / RFU ID3 (11757404_x_at) / Fold change /veh ID3 (11757404_x_at) / RFU PLEKHG5 (11737974_s_at) / Fold change /veh PLEKHG5 (11737974_s_at) / RFU LRRC4B (11730491_at) / Fold change /veh LRRC4B (11730491_at) / RFU GIMAP4 (11747438_a_at) / Fold change /veh GIMAP4 (11747438_a_at) / RFU KRT8 (11758183_x_at) / Fold change /veh KRT8 (11758183_x_at) / RFU CNN1 (11734310_a_at) / Fold change /veh CNN1 (11734310_a_at) / RFU VPS37D (11726825_at) / Fold change /veh VPS37D (11726825_at) / RFU C10orf10 (11716522_x_at) / Fold change /veh C10orf10 (11716522_x_at) / RFU KIR2DL2 /// KIR2DL4 /// KIR2DL5A /// KIR2DL5B /// KIR2DS1 /// KIR2DS2 /// KIR2DS3 /// KIR2DS4 /// KIR3DL3 /// KIR3DL3 /// KIR3DS1 (11738374_at) / Fold change /veh KIR2DL2 /// KIR2DL4 /// KIR2DL5A /// KIR2DL5B /// KIR2DS1 /// KIR2DS2 /// KIR2DS3 /// KIR2DS4 /// KIR3DL3 /// KIR3DL3 /// KIR3DS1 (11738374_at) / RFU C1QL1 (11718748_at) / Fold change /veh C1QL1 (11718748_at) / RFU TMPRSS4 (11747572_a_at) / Fold change /veh TMPRSS4 (11747572_a_at) / RFU HAMP (11756126_x_at) / Fold change /veh HAMP (11756126_x_at) / RFU RNFT2 (11725882_a_at) / Fold change /veh RNFT2 (11725882_a_at) / RFU NR4A2 (11747474_a_at) / Fold change /veh NR4A2 (11747474_a_at) / RFU ABCC12 (11746883_a_at) / Fold change /veh ABCC12 (11746883_a_at) / RFU TMEM136 (11760407_x_at) / Fold change /veh TMEM136 (11760407_x_at) / RFU CLDN22 /// WWC2 (11732394_at) / Fold change /veh CLDN22 /// WWC2 (11732394_at) / RFU HLA-DPB1 (11760878_x_at) / Fold change /veh HLA-DPB1 (11760878_x_at) / RFU SPINT1 (11716480_a_at) / Fold change /veh SPINT1 (11716480_a_at) / RFU GAP43 (11754022_s_at) / Fold change /veh GAP43 (11754022_s_at) / RFU A4GNT (11735810_at) / Fold change /veh A4GNT (11735810_at) / RFU PRB3 (11715151_x_at) / Fold change /veh PRB3 (11715151_x_at) / RFU TUBB4B (11761932_at) / Fold change /veh TUBB4B (11761932_at) / RFU CAPN14 (11732068_a_at) / Fold change /veh CAPN14 (11732068_a_at) / RFU TMCC2 (11721928_a_at) / Fold change /veh TMCC2 (11721928_a_at) / RFU IRGQ (11745062_a_at) / Fold change /veh IRGQ (11745062_a_at) / RFU FAM174B (11720279_a_at) / Fold change /veh FAM174B (11720279_a_at) / RFU TMPRSS4 (11748680_a_at) / Fold change /veh TMPRSS4 (11748680_a_at) / RFU FAM212B (11763350_a_at) / Fold change /veh FAM212B (11763350_a_at) / RFU PLEKHG5 (11743358_a_at) / Fold change /veh PLEKHG5 (11743358_a_at) / RFU ZSCAN30 (11745921_a_at) / Fold change /veh ZSCAN30 (11745921_a_at) / RFU CMKLR1 (11741424_a_at) / Fold change /veh CMKLR1 (11741424_a_at) / RFU LOC101060620 /// MAPK8IP1 (11723275_at) / Fold change /veh LOC101060620 /// MAPK8IP1 (11723275_at) / RFU SPTSSB (11747773_x_at) / Fold change /veh SPTSSB (11747773_x_at) / RFU PRSS12 (11739890_at) / Fold change /veh PRSS12 (11739890_at) / RFU BIN1 (11741810_x_at) / Fold change /veh BIN1 (11741810_x_at) / RFU WNT11 (11732464_a_at) / Fold change /veh WNT11 (11732464_a_at) / RFU C10orf10 (11716521_a_at) / Fold change /veh C10orf10 (11716521_a_at) / RFU C5orf56 (11738089_at) / Fold change /veh C5orf56 (11738089_at) / RFU CYB561 (11721691_x_at) / Fold change /veh CYB561 (11721691_x_at) / RFU ANKRD19P (11752326_a_at) / Fold change /veh ANKRD19P (11752326_a_at) / RFU OR2T12 /// OR2T33 /// OR2T8 (11738714_s_at) / Fold change /veh OR2T12 /// OR2T33 /// OR2T8 (11738714_s_at) / RFU VCAN (11748164_a_at) / Fold change /veh VCAN (11748164_a_at) / RFU JSRP1 (11732532_at) / Fold change /veh JSRP1 (11732532_at) / RFU KRTAP10-11 (11738290_x_at) / Fold change /veh KRTAP10-11 (11738290_x_at) / RFU MYO3A (11730013_a_at) / Fold change /veh MYO3A (11730013_a_at) / RFU EBF3 (11725865_a_at) / Fold change /veh EBF3 (11725865_a_at) / RFU CAMK2N1 (11719241_x_at) / Fold change /veh CAMK2N1 (11719241_x_at) / RFU C5orf56 (11738088_a_at) / Fold change /veh C5orf56 (11738088_a_at) / RFU OLFML3 (11715873_a_at) / Fold change /veh OLFML3 (11715873_a_at) / RFU LOC100653217 /// NTM (11731650_a_at) / Fold change /veh LOC100653217 /// NTM (11731650_a_at) / RFU MAPK11 (11762145_a_at) / Fold change /veh MAPK11 (11762145_a_at) / RFU FIZ1 (11724087_x_at) / Fold change /veh FIZ1 (11724087_x_at) / RFU OASL (11726364_x_at) / Fold change /veh OASL (11726364_x_at) / RFU SOX15 (11748057_x_at) / Fold change /veh SOX15 (11748057_x_at) / RFU CD79A (11719716_a_at) / Fold change /veh CD79A (11719716_a_at) / RFU HIST1H1D (11736915_at) / Fold change /veh HIST1H1D (11736915_at) / RFU CASKIN2 (11723855_a_at) / Fold change /veh CASKIN2 (11723855_a_at) / RFU LOC730098 (11760151_x_at) / Fold change /veh LOC730098 (11760151_x_at) / RFU OR4N2 (11742367_at) / Fold change /veh OR4N2 (11742367_at) / RFU PRRT2 (11749266_a_at) / Fold change /veh PRRT2 (11749266_a_at) / RFU SNX32 (11753110_a_at) / Fold change /veh SNX32 (11753110_a_at) / RFU CDHR5 (11726645_a_at) / Fold change /veh CDHR5 (11726645_a_at) / RFU RCAN1 (11760418_a_at) / Fold change /veh RCAN1 (11760418_a_at) / RFU FAM167A (11723789_a_at) / Fold change /veh FAM167A (11723789_a_at) / RFU FAM26E (11764081_at) / Fold change /veh FAM26E (11764081_at) / RFU ISYNA1 (11749810_s_at) / Fold change /veh ISYNA1 (11749810_s_at) / RFU ACY1 (11761880_at) / Fold change /veh ACY1 (11761880_at) / RFU 11764098_at / Fold change /veh 11764098_at / RFU SAMD14 (11745864_x_at) / Fold change /veh SAMD14 (11745864_x_at) / RFU NPB (11741838_a_at) / Fold change /veh NPB (11741838_a_at) / RFU TMPRSS6 (11731388_a_at) / Fold change /veh TMPRSS6 (11731388_a_at) / RFU KRTAP10-2 (11738614_at) / Fold change /veh KRTAP10-2 (11738614_at) / RFU ARHGAP8 /// PRR5-ARHGAP8 (11727945_x_at) / Fold change /veh ARHGAP8 /// PRR5-ARHGAP8 (11727945_x_at) / RFU KRTAP5-7 /// NADSYN1 (11734609_at) / Fold change /veh KRTAP5-7 /// NADSYN1 (11734609_at) / RFU RASL12 (11751679_a_at) / Fold change /veh RASL12 (11751679_a_at) / RFU CDKN2B (11736163_a_at) / Fold change /veh CDKN2B (11736163_a_at) / RFU PRF1 (11729649_at) / Fold change /veh PRF1 (11729649_at) / RFU, ZNF638 /// ZNF638-IT1 / Fold change vs veh, ZNF638 /// ZNF638-IT1 / RFU, PANK3 / Fold change vs veh, PANK3 / RFU, SH3YL1 / Fold change vs veh, SH3YL1 / RFU, ZEB2 / Fold change vs veh, ZEB2 / RFU, NRIP1 / Fold change vs veh, NRIP1 / RFU, PTTG1IP / Fold change vs veh, PTTG1IP / RFU, CAPN2 / Fold change vs veh, CAPN2 / RFU, MED14 / Fold change vs veh, MED14 / RFU, SNORA58 / Fold change vs veh, SNORA58 / RFU, C1orf63 / Fold change vs veh, C1orf63 / RFU, LRRFIP1 / Fold change vs veh, LRRFIP1 / RFU, NDUFAF7 / Fold change vs veh, NDUFAF7 / RFU, SLC12A2 / Fold change vs veh, SLC12A2 / RFU, IBTK / Fold change vs veh, IBTK / RFU, ESF1 / Fold change vs veh, ESF1 / Fold change vs veh, TMEM50B / RFU, TAOK1 / Fold change vs veh, TAOK1 / RFU, ACBD3 / Fold change vs veh, ACBD3 / RFU, TMA16 / Fold change vs veh, TMA16 / RFU, RWDD3 / Fold change vs veh, RWDD3 / RFU, BCAT1 / Fold change vs veh, BCAT1 / RFU, EDEM3 / Fold change vs veh, EDEM3 / RFU, TMEM33 / Fold change vs veh, TMEM33 / RFU, WDR75 / Fold change vs veh, WDR75 / RFU, AHCTF1 / Fold change vs veh, AHCTF1 / RFU, TFRC / Fold change vs veh, TFRC / RFU, ZDHHC17 / Fold change vs veh, ZDHHC17 / RFU, NOM1 / Fold change vs veh, NOM1 / RFU, ARL8B / Fold change vs veh, ARL8B / RFU, ZBTB11 / Fold change vs veh, ZBTB11 / RFU, TAMM41 / Fold change vs veh, TAMM41 / RFU, KIAA1704 /// LOC100996395 / Fold change vs veh, KIAA1704 /// LOC100996395 / RFU, ING1 / Fold change vs veh, ING1 / RFU, TRMT61B / Fold change vs veh, TRMT61B / RFU, FUBP3 / Fold change vs veh, FUBP3 / RFU, TP53 / Fold change vs veh, TP53 / RFU, TNKS2 / Fold change vs veh, TNKS2 / RFU, ZFP14 / Fold change vs veh, ZFP14 / RFU, ACTR2 / Fold change vs veh, ACTR2 / RFU, PPP3R1 / Fold change vs veh, PPP3R1 / RFU, PIK3R1 / Fold change vs veh, PIK3R1 / RFU, HNRNPA1 / Fold change vs veh, HNRNPA1 / RFU, RNF170 / Fold change vs veh, RNF170 / RFU, ZNF28 / Fold change vs veh, ZNF28 / RFU, RNGTT / Fold change vs veh, RNGTT / RFU, OGT / Fold change vs veh, OGT / RFU, BRD1 / Fold change vs veh, BRD1 / RFU, MARS / Fold change vs veh, MARS / RFU, ZNF655 / Fold change vs veh, ZNF655 / RFU, FAHD1 / Fold change vs veh, FAHD1 / RFU, BDP1 / Fold change vs veh, BDP1 / RFU, LRRCC1 / Fold change vs veh, LRRCC1 / RFU, ARID1A / Fold change vs veh, ARID1A / RFU, ZNF146 / Fold change vs veh, ZNF146 / RFU, ZNF330 / Fold change vs veh, ZNF330 / RFU, GPN3 / Fold change vs veh, GPN3 / RFU, C9orf123 / Fold change vs veh, C9orf123 / RFU, N4BP2L2 / Fold change vs veh, N4BP2L2 / RFU, ARFIP1 / Fold change vs veh, ARFIP1 / RFU, FAM179B / Fold change vs veh, FAM179B / RFU, BCL10 / Fold change vs veh, BCL10 / RFU, UHRF1BP1L / Fold change vs veh, UHRF1BP1L / RFU, BET1 / Fold change vs veh, BET1 / RFU, CNOT2 / Fold change vs veh, CNOT2 / RFU, ZNF268 / Fold change vs veh, ZNF268 / Fold change vs veh, ZNF507 / RFU, DGCR2 / Fold change vs veh, DGCR2 / RFU, WDSUB1 / Fold change vs veh, WDSUB1 / Fold change vs veh, HSP90B1 /// MIR3652 / RFU, ADSS / Fold change vs veh, ADSS / RFU, GK / Fold change vs veh, GK / RFU, ZNF148 / Fold change vs veh, ZNF148 / RFU, TAF9 / Fold change vs veh, TAF9 / RFU, SLC1A5 / Fold change vs veh, SLC1A5 / RFU, SLMO2 / Fold change vs veh, SLMO2 / RFU, ABCC4 / Fold change vs veh, ABCC4 / RFU, LOC101060439 /// RAP1B / Fold change vs veh, LOC101060439 /// RAP1B / RFU, RFX7 / Fold change vs veh, RFX7 / RFU, GTPBP10 / Fold change vs veh, GTPBP10 / RFU, CNEP1R1 / Fold change vs veh, CNEP1R1 / RFU, BIVM-ERCC5 /// ERCC5 / Fold change vs veh, BIVM-ERCC5 /// ERCC5 / RFU, ILF3 / Fold change vs veh, ILF3 / RFU 11762660_at / Fold change /veh 11762660_at / RFU VCAN (11757783_s_at) / Fold change /veh VCAN (11757783_s_at) / RFU DDX43 (11728927_at) / Fold change /veh DDX43 (11728927_at) / RFU KRT8 (11758188_x_at) / Fold change /veh KRT8 (11758188_x_at) / RFU NKD1 (11759106_at) / Fold change /veh NKD1 (11759106_at) / RFU SRD5A1 (11742802_a_at) / Fold change /veh SRD5A1 (11742802_a_at) / RFU TPSAB1 /// TPSB2 (11721975_s_at) / Fold change /veh TPSAB1 /// TPSB2 (11721975_s_at) / RFU GSTM3 (11746129_a_at) / Fold change /veh GSTM3 (11746129_a_at) / RFU IL23R (11737362_x_at) / Fold change /veh IL23R (11737362_x_at) / RFU TMEM51 (11727254_a_at) / Fold change /veh TMEM51 (11727254_a_at) / RFU PIWIL2 (11732686_x_at) / Fold change /veh PIWIL2 (11732686_x_at) / RFU ORM1 (11744905_x_at) / Fold change /veh ORM1 (11744905_x_at) / RFU CCDC152 (11743942_at) / Fold change /veh CCDC152 (11743942_at) / RFU ECM1 (11717891_a_at) / Fold change /veh ECM1 (11717891_a_at) / RFU IL23R (11748794_a_at) / Fold change /veh IL23R (11748794_a_at) / RFU TNFAIP8L3 (11732012_x_at) / Fold change /veh TNFAIP8L3 (11732012_x_at) / RFU MBOAT4 (11741988_at) / Fold change /veh MBOAT4 (11741988_at) / RFU 11764193_at / Fold change /veh 11764193_at / RFU TMEM53 (11763286_at) / Fold change /veh TMEM53 (11763286_at) / RFU MAGEB2 (11727129_at) / Fold change /veh MAGEB2 (11727129_at) / RFU TMEM200A (11744735_a_at) / Fold change /veh TMEM200A (11744735_a_at) / RFU CCDC152 (11751479_a_at) / Fold change /veh CCDC152 (11751479_a_at) / RFU FAM211A (11726209_a_at) / Fold change /veh FAM211A (11726209_a_at) / RFU RGS16 (11746705_a_at) / Fold change /veh RGS16 (11746705_a_at) / RFU VCAN (11755009_s_at) / Fold change /veh VCAN (11755009_s_at) / RFU RHOB (11743442_s_at) / Fold change /veh RHOB (11743442_s_at) / RFU RGS16 (11720943_a_at) / Fold change /veh RGS16 (11720943_a_at) / RFU RGS16 (11720944_at) / Fold change /veh RGS16 (11720944_at) / RFU, VPS4B / Fold change vs veh, VPS4B / RFU, CREB1 / Fold change vs veh, CREB1 / RFU, DNAJC13 / Fold change vs veh, DNAJC13 / RFU, GNAQ / Fold change vs veh, GNAQ / RFU, CDK5R1 / Fold change vs veh, CDK5R1 / RFU, ZRANB3 / Fold change vs veh, ZRANB3 / RFU, CUL4A / Fold change vs veh, CUL4A / RFU, CCNY / Fold change vs veh, CCNY / RFU, UFL1 / Fold change vs veh, UFL1 / RFU, COG3 / Fold change vs veh, COG3 / RFU, DIAPH2 / Fold change vs veh, DIAPH2 / RFU, SKA2 / Fold change vs veh, SKA2 / RFU, AFF3 / Fold change vs veh, AFF3 / RFU, LMF1 / Fold change vs veh, LMF1 / RFU, IPO11 / Fold change vs veh, IPO11 / RFU, DFFB / Fold change vs veh, DFFB / RFU, FOXP1 / Fold change vs veh, FOXP1 / RFU, CARD8 / Fold change vs veh, CARD8 / RFU, STRN3 / Fold change vs veh, STRN3 / RFU, ADK / Fold change vs veh, ADK / RFU, RASSF2 / Fold change vs veh, RASSF2 / RFU, WIPF1 / Fold change vs veh, WIPF1 / RFU, LARP1B / Fold change vs veh, LARP1B / RFU, RASA1 / Fold change vs veh, RASA1 / RFU, RB1 / Fold change vs veh, RB1 / RFU, PPFIA1 / Fold change vs veh, PPFIA1 / RFU, MAT2A / Fold change vs veh, MAT2A / RFU, CCT5 / Fold change vs veh, CCT5 / RFU, WDR92 / Fold change vs veh, WDR92 / RFU, CUX1 / Fold change vs veh, CUX1 / RFU, TTC7A / Fold change vs veh, TTC7A / RFU, TMEM135 / Fold change vs veh, TMEM135 / RFU, DEPTOR / Fold change vs veh, DEPTOR / RFU, CPM / Fold change vs veh, CPM / RFU, DNAJB6 / Fold change vs veh, DNAJB6 / RFU, CACNA2D3 / Fold change vs veh, CACNA2D3 / RFU, DTX4 / Fold change vs veh, DTX4 / RFU, TFCP2 / Fold change vs veh, TFCP2 / RFU, GMCL1 /// GMCL1P1 / Fold change vs veh, GMCL1 /// GMCL1P1 / RFU, AEBP2 / Fold change vs veh, AEBP2 / RFU, SNHG1 /// SNORD22 /// SNORD25 /// SNORD26 /// SNORD27 /// SNORD28 /// SNORD29 /// SNORD31 / Fold change vs veh, SNHG1 /// SNORD22 /// SNORD25 /// SNORD26 /// SNORD27 /// SNORD28 /// SNORD29 /// SNORD31 / Fold change (Aza/veh), C12orf56 (ProbeSet 11735607_a_at) / Fold change (ACY-1035/veh), C12orf56 (ProbeSet 11735607_a_at) / Fold change (Aza/veh), FGFR1OP (ProbeSet 11751329_s_at) / Fold change (ACY-1035/veh), FGFR1OP (ProbeSet 11751329_s_at) / Fold change (Aza/veh), VPS36 (ProbeSet 11739960_a_at) / Fold change (ACY-1035/veh), VPS36 (ProbeSet 11739960_a_at) / RFU SYPL1 (11715823_x_at) / Fold change /veh SYPL1 (11715823_x_at) / RFU IGFBP7 (11715501_s_at) / Fold change /veh IGFBP7 (11715501_s_at) / RFU REEP3 (11722064_at) / Fold change /veh REEP3 (11722064_at) / RFU IGLL1 (11728026_x_at) / Fold change /veh IGLL1 (11728026_x_at): dose or concentration left out as unconfirmed
Conditions: ProbeSet 11724877_a_at; LIST D

Nc1ccc(-c2cccs2)cc1NC(=O)c1ccc2c(c1)cc(C1CC1)n2CCN1CCOCC1 [ACY-1035]
Fold change vs veh, AEBP2: 1.03

Reference: paper PMC5218480 (PLoS ONE, 2017)
